Laboratory results: article PMC4686663, “Ultrahigh-throughput discovery of promiscuous enzymes by picodroplet functional metagenomics” (Nature Communications, 2015)
Structures can show the parent of a compound that is named as a salt. Where two headings read alike, the source gives them in different places.

How the values were obtained:
P40 = target: T1, P40 (uncultured organism, UniProt A0A141FA90); experiment: sulfate transfer kinetics; type: biochemical; conditions: acceptor phenolate; ping-pong mechanism
T1 construct: ORF p40 recloned in modified pRSFDuet (NcoI-XhoI), E. coli BL21(DE3); no tag stated
T1 sequence (A0A141FA90 entry or part of it): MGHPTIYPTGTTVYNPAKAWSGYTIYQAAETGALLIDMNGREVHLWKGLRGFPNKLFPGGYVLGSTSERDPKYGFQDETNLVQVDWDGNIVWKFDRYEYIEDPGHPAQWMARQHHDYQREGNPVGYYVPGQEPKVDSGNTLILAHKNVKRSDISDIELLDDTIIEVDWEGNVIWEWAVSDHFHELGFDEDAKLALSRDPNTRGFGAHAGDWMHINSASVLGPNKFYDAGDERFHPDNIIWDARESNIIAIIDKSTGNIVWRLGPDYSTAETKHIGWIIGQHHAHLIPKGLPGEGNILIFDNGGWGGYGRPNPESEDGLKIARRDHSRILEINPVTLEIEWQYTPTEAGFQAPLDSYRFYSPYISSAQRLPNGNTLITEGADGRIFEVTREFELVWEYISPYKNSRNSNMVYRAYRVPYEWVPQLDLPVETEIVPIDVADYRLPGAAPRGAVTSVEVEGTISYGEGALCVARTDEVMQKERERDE

P85 = system: T2, P85; experiment: 4-nitrophenolate release, […] nm, initial rates; type: biochemical; conditions: 100 mM MOPS-NaOH pH 8.0, 150 mM NaCl, 25 °C
T2 construct: N-terminal Strep-tag, pASKIBA5plus (BsaI), E. coli BL21(DE3); Strep-Tactin and gel filtration

P86 = target: T3, P86 (uncultured organism, UniProt A0A141FA97); experiment: 4-nitrophenolate release, […] nm, initial rates; type: biochemical; conditions: 100 mM MOPS-NaOH pH 8.0, 150 mM NaCl, 25 °C
T3 construct: N-terminal Strep-tag, pASKIBA5plus (EcoRI-NcoI), E. coli BL21(DE3); Strep-Tactin and gel filtration
T3 sequence (A0A141FA97 entry or part of it): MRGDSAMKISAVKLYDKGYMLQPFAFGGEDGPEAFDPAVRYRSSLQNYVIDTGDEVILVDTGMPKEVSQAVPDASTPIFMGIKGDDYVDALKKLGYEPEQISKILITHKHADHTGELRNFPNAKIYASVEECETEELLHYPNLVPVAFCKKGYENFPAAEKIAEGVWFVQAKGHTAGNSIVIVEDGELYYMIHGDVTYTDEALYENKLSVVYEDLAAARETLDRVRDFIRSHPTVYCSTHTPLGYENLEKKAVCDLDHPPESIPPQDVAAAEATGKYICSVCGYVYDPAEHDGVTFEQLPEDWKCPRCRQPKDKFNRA

P83 = target: T4, P83 (uncultured organism, UniProt A0A141FA94); experiment: 4-nitrophenolate release, […] nm, initial rates; type: biochemical; conditions: 100 mM MOPS-NaOH pH 8.0, 150 mM NaCl, 25 °C
T4 construct: N-terminal Strep-tag, pASKIBA5plus (BsaI), E. coli BL21(DE3); Strep-Tactin and gel filtration

P84 = P84 (uncultured organism, UniProt A0A141FA95); experiment: 4-nitrophenolate release, […] nm, initial rates; conditions: 100 mM MOPS-NaOH pH 8.0, 150 mM NaCl, 25 °C
P84, sequence (A0A141FA95 entry or part of it): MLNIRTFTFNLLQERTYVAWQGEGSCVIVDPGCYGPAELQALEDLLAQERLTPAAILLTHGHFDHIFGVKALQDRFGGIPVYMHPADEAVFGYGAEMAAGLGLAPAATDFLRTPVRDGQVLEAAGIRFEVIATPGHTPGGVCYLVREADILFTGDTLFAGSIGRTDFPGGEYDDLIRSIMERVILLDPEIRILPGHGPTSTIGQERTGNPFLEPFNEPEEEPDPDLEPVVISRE

[1] = substrate: CC(=O)Oc1ccc([N+](=O)[O-])cc1; experiment: purified protein, by the assay type; parameters: Michaelis-Menten kinetics of substrate hydrolysis by purified enzyme, initial rates by absorbance or fluorescence, plate reader; conditions: 25.0 °C
Description: (§1) All enzymatic assays were conducted at 25 °C in a final volume of 200 μl, in the activity buffer (100 mM MOPS-NaOH pH 8.0, containing 150 mM NaCl) that was used throughout the experiments, unless otherwise stated. Measurements were performed in 96-well plate format and product formation followed in SpectraMax M5 or 190 microplate readers. Hydrolysis of substrates with fluorescein leaving groups (1d and 2d) was monitored at the following wavelengths: λexcitation=488 nm and λemission=525 nm. A calibration curve (linearly fit to the equation: fluorescence=1.2 × 10^10 M^−1 [fluorescein]) was used to quantify fluorescein release. Hydrolysis of esters 1, 2a, 2b, 3, 4, 5, 6 and acetamide 9 was monitored by measuring absorbance of p-nitrophenolate at 400 nm (ɛ≈17,700 M^−1 cm^−1). Hydrolysis of thioester 7 was measured in the presence of the indicator 5,5'-dithiobis-(2-nitrobenzoic acid) (500 μM); the increase of 2-nitro-5-thiobenzoate was monitored at 412 nm (ɛ≈13,100 M^−1 cm^−1)[39]. Hydrolysis of lactones 8b, 8c, 8d1, 8d2 was measured using a pH-shift assay in 2.5 mM Bicine, 200 mM NaCl, 0.3 mM cresol purple pH 8.3 (ref. [65]). The pH drop was monitored by the decrease in the absorbance of the indicator dye cresol purple at 577 nm (ɛ≈4,000 M^−1 cm^−1). Hydrolysis of lactone 8a was measured at 270 nm in an ultraviolet-transparent 96-well plate. Hydrolysis of β-lactam 10 was measured at 405 nm in phosphate buffer (100 mM, pH 8.0). All kinetic parameters were calculated by fitting initial rates vo to the Michaelis–Menten equations (or, if saturation could not be reached due to solubility limits, to linear correlations) using Kaleidagraph. Example data and details of equations used for fitting are shown in Supplementary Fig. 14. (b) PTE hits. Applying the screening workflow to PTEs (using triester 2d as substrate) led to the isolation of eight unique and novel sequences, mostly originating from unknown microorganisms (Supplementary Table 2). Only one of these genes (p83) was predicted as a potential PTE by Pfam domain recognition (Fig. 3). […]

[2] = substrate: O=C1CCc2ccccc2O1; experiment: purified protein, by the assay type; parameters: Michaelis-Menten kinetics of substrate hydrolysis by purified enzyme, initial rates by absorbance or fluorescence, plate reader
Description: as §1

O=[N+]([O-])c1ccc(OS(=O)(=O)O)cc1 [1a, sulfate ester 1a]
sulfate transfer kinetics (P40): P40 was shown to catalyse sulfate transfer from sulfate ester 1a to phenolate

CCOP(=O)(OCC)Oc1ccc([N+](=O)[O-])cc1 [2a, paraoxon]
Km (P85): > 5 mM | Km (P86): > 5 mM | Km (P83): > 5 mM | Km (P84): > 5 mM

B1: P88.2 (uncultured organism) (protein)
chain: MNLTETLPGDELANAMAARGYPAVEPATTRDRGVGPFRRLVLRGARILDGTGAPPVGPYDIVVEGGRIKEVVLVGVPKMPIKPERRPAPGDHEIDCTGKLVTPGFVDAHVHIGTYYHAPSGPMPSADYVYKLWLAHGITTVREMACMNGVGWTLEQKEAAAANRIAAPKIVAHAYFPAVDEFIKTIYTVEQARKWVRAVKERGVDGLKFFGAPPAIMQAALEEANKLGMRSGCHHAQMSVSKVNALRSAQWGLTSTEHFYGIPEAMFIDRAVQAYPVGYDFMDESLRYNSSSQNFIQAAEPGSAKWQETLEKFLELGHSFVPTLAILEANRDLMRARRADWHDEYTHKTLWTYFQPHRGGHCSHWYRWTTTNEVQWKEHFRRWMRFCNDYKNLGGRVCPGSDAGFTFQLYGFCFIRELEQMQEAGFHPLEIFRAATSESAALLGVDHETGTIEPGKCADLLVHRYDPLDDLKYLYGTGAWRLNDETGKTEWHRGIEYTIKDGVIYDPAELLADVRAIVAESFNEGEDTRPRTRR
notes: N-terminal Strep-tag, pASKIBA5plus (EcoRI-NcoI), E. coli BL21(DE3); Strep-Tactin and gel filtration
Km [1]: 2.9 ± 1.2 mM

B2: P83 (uncultured organism) (protein)
chain: MQINSVLGPVDTADLGFTLIHEHLLIGWAGWQWDSRWEFDRANAMAKAVDLLQELKALGVSTFVDPCPMDIGRDPEFLAEASQRSGMTIIASTGLYHSEMGIPSYFHAMPEEEIAEIFIHDLTEGMGHTGIKAGIIKCATTAGHVTEQEQKTHGAAARAQVATGAPIITHTDENGPMGLAQLDIFESRGASVSKIAIGHSCGNGDIRYLLSVLERGAWLSFDRFGFGLSASDDVRVASLLGLIGLGYADRLMISHDSVSTFLAKPGGWDPAQEPSLANWKPTHIIQNIIPRLKNAGVSQEVIDTITIDNPRRYFEGSAASGNK
notes: N-terminal Strep-tag, pASKIBA5plus (BsaI), E. coli BL21(DE3); Strep-Tactin and gel filtration
Km [2]: 2.5 ± 0.4 mM

B3: P91 (uncultured organism) (protein)
chain: MTARKVDYTDGATRCIGEFHWDEGKSGPRPGVVVFPEAFGLNDHAKERARRLADLGFAALAADMHGDAQVFDAASLSSTIQGYYGDRAHWRRRAQAALDALTAQPEVDGSKVAAIGFCFGGATCLELARTGAPLTAIVTFHGGLLPEMAGDAGRIQSSVLVCHGADDPLVQDETMKAVMDEFRRDKVDWQVLYLGNAVHSFTDPLAGSHGIPGLAYDATAEARSWTAMCNLFSELFG
notes: as for B2
Km ([2]; 25.0 °C): 7.7 ± 2.5 mM
